{"source": "patent US20240024403A1", "about": "“Compositions and Methods for Managing Weight” (Unigen, Inc., priority 2012, published 2024)", "assay": "High fat diet induced obesity (DIO) mouse model", "format": "in vivo, C57CL/6J mice", "details": "DIO mice", "procedure": "C57CL/6J mice aged 4-6 weeks (Korea Research Institute of Bioscience & Biotechnology, Ohchang, Korea) were housed in Polycarbonate cages (five mice per cage) in a room with a 12 hr:12 hr light-dark cycle and an ambient temperature of 24° C. All the mice were fed a commercial chow diet for 1 week after arrival in the animal facility. Mice were then divided into normal and obesity groups and fed with normal diet (ND) and high fat diets (HFD) respectively. The HFD group was divided into multiple treatment groups: a high fat diet vehicle group (HFD), an orlistat (purchased as OTC drug Alli®) positive control treatment group (ORI, 40 mg/kg of animal weight, 2 times/day) and optionally a sibutramine positive control treatment group (10 mg/kg, 1 time/day). The HFD contained 340 g of fat/kg of HFD (310 g lard plus 30 g soybean oil; Harlan Laboratories, USA). The HFD was formulated to provide 60% of the total energy generated by the diet from fat by replacing carbohydrate energy with lard and soybean oil, whereas the normal diet (ND) group was fed a diet providing only 18% of the total diet energy from fat(Harlan Laboratories, USA).\nBody weight was measured once each week and feed intake was measured twice per week. At the end of the experimental period, following a 12 hr. fasting period, the animals were anesthetized with ether, and blood was drawn from the abdominal vein. Liver and kidney and adipose tissues (epididymal, retroperitoneal, perirenal adipose tissues) were removed from each animal, rinsed with physiological saline, and weighed. Serum concentrations of glucose, total cholesterol, triglycerides, and LDL-cholesterol were determined using automatic analyzer (INTEGRA 400, Roche, Germany). Statistical significance of test results was measured using the Student's t-test.", "key": {"[1]": {"details": "G1-G4 1000 mg/kg oral gavage two times per day"}, "[2]": {"details": "G1-G4 1000 mg/kg oral gavage two times per day, in g (unit assumed)"}, "[3]": {"details": "G1 = 800 mg/kg orally twice a day"}, "[4]": {"details": "G1 = 1,100 mg/kg orally twice a day"}, "[5]": {"details": "G1 = 1,200 mg/kg orally twice a day"}, "[6]": {"details": "Mean score, G1 1,300 mg/kg twice a day"}, "[7]": {"details": "Mean, Composition 11 (G1) 1,300 mg/kg twice a day, oral"}, "[8]": {"details": "Mean, G1 1,300 mg/kg twice a day"}}}
{"smiles": "CCCCCCCCCCC[C@@H](C[C@@H]1OC(=O)[C@H]1CCCCCC)OC(=O)[C@H](CC(C)C)NC=O", "note": "[ORI, orlistat]", "values": [{"measurement": "Food Intake", "setting": "[1]", "value": 2.675, "unit": "g/day"}, {"measurement": "Weight Gain", "setting": "[1]", "value": 0.015, "unit": "g/day"}, {"measurement": "Absolute Organ Weight, Epididymal Fat", "setting": "[2]", "value": 1.998}, {"measurement": "Absolute Organ Weight, Liver", "setting": "[2]", "value": 1.184}, {"measurement": "ALP", "setting": "[3]", "value": 177.35, "unit": "U/L"}, {"measurement": "ALT", "setting": "[3]", "value": 23.03, "unit": "U/L"}, {"measurement": "AST", "setting": "[3]", "value": 51.40, "unit": "U/L"}, {"measurement": "Absolute Organ Weight: Epididymal fat", "setting": "[3]", "value": 2.03, "unit": "g"}, {"measurement": "Absolute Organ Weight: Liver", "setting": "[3]", "value": 1.19, "unit": "g"}, {"measurement": "Absolute Organ Weight: PeriRenal fat", "setting": "[3]", "value": 0.29, "unit": "g"}, {"measurement": "Absolute Organ Weight: Retroperitoneal fat", "setting": "[3]", "value": 0.5, "unit": "g"}, {"measurement": "Body Weight Gain", "setting": "[3]", "value": -0.004, "unit": "g/day"}, {"measurement": "Food Intake", "setting": "[3]", "value": 3.147, "unit": "g/day"}, {"measurement": "LDL-C", "setting": "[3]", "value": 4.28, "unit": "mg/dL"}, {"measurement": "T-chol", "setting": "[3]", "value": 155.83, "unit": "mg/dL"}, {"measurement": "TG", "setting": "[3]", "value": 88.33, "unit": "mg/dL"}, {"measurement": "TP", "setting": "[3]", "value": 5.08, "unit": "g/dL"}, {"measurement": "ALT", "setting": "[4]", "value": 23.03, "unit": "U/L"}, {"measurement": "AST", "setting": "[4]", "value": 51.40, "unit": "U/L"}, {"measurement": "Absolute Organ Weight: Epididymal Fat", "setting": "[4]", "value": 2.03, "unit": "g"}, {"measurement": "Absolute Organ Weight: Liver", "setting": "[4]", "value": 1.19, "unit": "g"}, {"measurement": "Absolute Organ Weight: PeriRenal Fat", "setting": "[4]", "value": 0.29, "unit": "g"}, {"measurement": "Absolute Organ Weight: Retroperitoneal Fat", "setting": "[4]", "value": 0.5, "unit": "g"}, {"measurement": "Body Weight Gain", "setting": "[4]", "value": -0.004, "unit": "g/day"}, {"measurement": "Food Intake", "setting": "[4]", "value": 3.147, "unit": "g/day"}, {"measurement": "LDL-C", "setting": "[4]", "value": 4.28, "unit": "mg/dL"}, {"measurement": "T-chol", "setting": "[4]", "value": 155.83, "unit": "mg/dL"}, {"measurement": "TG", "setting": "[4]", "value": 88.33, "unit": "mg/dL"}, {"measurement": "TP", "setting": "[4]", "value": 5.08, "unit": "g/dL"}, {"measurement": "ALT", "setting": "[5]", "value": 23.03, "unit": "U/L"}, {"measurement": "AST", "setting": "[5]", "value": 51.40, "unit": "U/L"}, {"measurement": "Absolute Organ Weight: Epididymal Fat", "setting": "[5]", "value": 2.03, "unit": "g"}, {"measurement": "Absolute Organ Weight: Liver", "setting": "[5]", "value": 1.19, "unit": "g"}, {"measurement": "Absolute Organ Weight: PeriRenal Fat", "setting": "[5]", "value": 0.29, "unit": "g"}, {"measurement": "Absolute Organ Weight: Retroperitoneal Fat", "setting": "[5]", "value": 0.5, "unit": "g"}, {"measurement": "Food Intake", "setting": "[5]", "value": 3.147, "unit": "g/day"}, {"measurement": "LDL-C", "setting": "[5]", "value": 4.28, "unit": "mg/dL"}, {"measurement": "T-chol", "setting": "[5]", "value": 155.83, "unit": "mg/dL"}, {"measurement": "TG", "setting": "[5]", "value": 88.33, "unit": "mg/dL"}, {"measurement": "TP", "setting": "[5]", "value": 5.08, "unit": "g/dL"}, {"measurement": "Weight Gain", "setting": "[5]", "value": -0.004, "unit": "g/day"}, {"measurement": "Liver pathology: Hepatocellular ballooning (0-2)", "setting": "[6]", "value": 0.33}, {"measurement": "Liver pathology: Lobular Inflammation (0-3)", "setting": "[6]", "value": 1.50}, {"measurement": "Liver pathology: Steatosis (0-3)", "setting": "[6]", "value": 0.33}, {"measurement": "Body Weight Gain", "setting": "[7]", "value": -0.004, "unit": "g/day"}, {"measurement": "Food Intake", "setting": "[7]", "value": 3.147, "unit": "g/day"}, {"measurement": "ALP", "setting": "[8]", "value": 177.35, "unit": "U/L"}, {"measurement": "ALT", "setting": "[8]", "value": 23.03, "unit": "U/L"}, {"measurement": "AST", "setting": "[8]", "value": 51.40, "unit": "U/L"}, {"measurement": "Absolute Organ Weight: Epididymal Fat", "setting": "[8]", "value": 2.03, "unit": "g"}, {"measurement": "Absolute Organ Weight: Liver", "setting": "[8]", "value": 1.19, "unit": "g"}, {"measurement": "Absolute Organ Weight: PeriRenal Fat", "setting": "[8]", "value": 0.29, "unit": "g"}, {"measurement": "Absolute Organ Weight: Retroperitoneal Fat", "setting": "[8]", "value": 0.5, "unit": "g"}, {"measurement": "HDL-C", "setting": "[8]", "value": 75.57, "unit": "mg/dL"}, {"measurement": "LDL-C", "setting": "[8]", "value": 4.28, "unit": "mg/dL"}, {"measurement": "TP", "setting": "[8]", "value": 5.08, "unit": "g/dL"}, {"measurement": "FER (Food efficiency ratio)", "setting": "Mean, body weight gain (g/day)/food intake (g/day), G1 1,300 mg/kg twice a day", "value": "−0.001"}, {"measurement": "Liver pathology: NSAH (sum)", "setting": "Mean, sum of scores, G1 1,300 mg/kg twice a day", "value": 2.17}, {"measurement": "Absolute organ weight: Total Fat", "setting": "Mean, sum of the three fat pads, G1 1,300 mg/kg twice a day", "value": 2.82, "unit": "g"}, {"measurement": "FER (Food efficiency ratio)", "setting": "ORI group, mean, Table 136", "value": 0.000}, {"measurement": "Food Intake", "setting": "ORI group, mean, Table 136", "value": 3.195, "unit": "g/day"}, {"measurement": "Weight Gain", "setting": "ORI group, mean, Table 136", "value": 0.000, "unit": "g/day"}, {"measurement": "ALT", "setting": "ORI group, mean, Table 137", "value": 21.83, "unit": "U/L"}, {"measurement": "AST", "setting": "ORI group, mean, Table 137", "value": 65.65, "unit": "U/L"}]}
